Measurements from patent US8716289B2, “Carbamate derivatives of alkyl-heterocycles, preparation thereof and therapeutic use thereof” (Sanofi, priority 2008, dated 2014).

Assays:
[1] = molecular target: T1, enzyme FAAH (Fatty Acid Amide Hydrolase) (Mus musculus, UniProt O08914); experiment: FAAH radioenzymatic test, hydrolysis of anandamide [ethanolamine 1-3H] (Protocol 1); type: biochemical; conditions: mouse brain membrane homogenate, anandamide 10 μM, preincubation 20 min at 25° C.
T1 construct: The membrane homogenates are prepared extemporaneously by homogenizing the tissues; from tissue; host or cells: mouse brain (minus the cerebellum), membrane homogenate
T1 sequence (O08914 1-579): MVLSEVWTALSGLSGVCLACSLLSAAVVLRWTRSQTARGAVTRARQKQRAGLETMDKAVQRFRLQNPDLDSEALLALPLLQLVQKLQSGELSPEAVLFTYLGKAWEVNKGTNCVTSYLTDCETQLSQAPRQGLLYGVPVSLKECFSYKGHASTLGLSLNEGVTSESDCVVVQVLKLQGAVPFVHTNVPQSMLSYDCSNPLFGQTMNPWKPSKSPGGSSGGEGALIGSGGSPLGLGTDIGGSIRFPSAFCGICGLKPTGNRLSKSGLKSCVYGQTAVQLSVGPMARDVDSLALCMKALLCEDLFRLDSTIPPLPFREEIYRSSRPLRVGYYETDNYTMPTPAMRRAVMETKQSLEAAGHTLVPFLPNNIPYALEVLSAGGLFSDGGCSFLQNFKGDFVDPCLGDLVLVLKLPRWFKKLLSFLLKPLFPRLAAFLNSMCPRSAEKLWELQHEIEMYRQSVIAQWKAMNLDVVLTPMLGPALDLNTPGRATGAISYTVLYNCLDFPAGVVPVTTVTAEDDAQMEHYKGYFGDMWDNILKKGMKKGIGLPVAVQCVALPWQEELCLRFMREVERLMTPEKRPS
Description: Thus, mouse brains (minus the cerebellum) are removed and stored at −80° C. The membrane homogenates are prepared extemporaneously by homogenizing the tissues using a Precellys® machine in reaction buffer (10 mM Tris-HCl, pH=8, 150 mM NaCl and 1 mM ethylenediaminetetraacetic acid (EDTA)). The enzymatic reaction is performed in 96-well Multiscreen filtration plates in a final volume of 70 μL. Reaction buffer supplemented with fatty acid-free bovine serum albumin (BSA, 1 mg/ml) is used for the enzymatic reaction and the dilution of the compounds and of the anandamide [ethanolamine 1-^3H]. The reaction buffer containing BSA (43 μL/well), the diluted test compounds at different concentrations (7 μL/well containing 1% DMSO) and the membrane preparation (10 μL/well, i.e. […] of tissue per test) are successively added to the wells. After preincubation for 20 minutes of the compounds with the enzyme at 25° C., the reaction is started by adding anandamide [ethanolamine 1-^3H]. (Specific activity of 15-20 Ci/mmol) diluted with cold anandamide (10 μL/well, final concentration of 10 μM, 0.01 ρCi per test). After incubation for 20 minutes at 25° C., the enzymatic reaction is stopped by adding a […] solution of active charcoal prepared in 1.5M NaCl buffer and 0.5 M HCl (50 μL/well). The mixture is stirred for 10 minutes and the aqueous phase containing the ethanolamine [1-^3H] is then recovered by filtration under vacuum and counted by liquid scintillation.

SMILES | IC50 [1] [nM] | melting point [°C]
Cn1ccc(COC(=O)NCCCC2CCN(c3nccc(C(F)(F)F)n3)CC2)n1 [Compound 52] | 28 | –
NC(=O)c1cc(COC(=O)NCCC2CCN(c3ccc(-c4cccc(F)c4)cn3)CC2)on1 [Compound 28, 3-carbamoylisoxazol-5-ylmethyl 2-[5′-(3-fluorophenyl)-3,4,5,6-tetrahydro-2H-[1,2′]bipyridinyl-4-yl]ethylcarbamate] | – | 172 to 176
CCOC(=O)c1cc(COC(=O)NCC2(F)CCN(c3nccc(C(F)(F)F)n3)CC2)on1 [Compound 51, ethyl 5-[4-fluoro-1-(4-trifluoromethylpyrimidin-2-yl)-piperidin-4-ylmethylcarbamoyloxymethyl]isoxazole-3-carboxylate] | – | 136 to 138
CNC(=O)c1cc(COC(=O)NCCC2CCN(c3ccc4cc(F)ccc4n3)CC2)on1 [Compound 25, 3-methylcarbamoylisoxazol-5-ylmethyl 2-[1-(6-fluoroquinolin-2-yl)piperidin-4-yl]ethylcarbamate] | – | 180 to 182
NC(=O)c1coc(COC(=O)NCCC2CCN(c3ccc(-c4ccc(F)cc4)cn3)CC2)n1 [Compound 21, 4-carbamoyloxazol-2-ylmethyl 2-[5′-(4-fluorophenyl)-3,4,5,6-tetrahydro-2H-[1,2′]bipyridinyl-4-yl]ethylcarbamate] | – | 206 to 208
CNC(=O)c1cc(COC(=O)NCCC2CCN(c3ccc(-c4ccc(F)cc4)cn3)CC2)on1 [Compound 26, 3-methylcarbamoylisoxazol-5-ylmethyl 2-[5′-(4-fluorophenyl)-3,4,5,6-tetrahydro-2H-[1,2′]bipyridinyl-4-yl]-ethylcarbamate] | – | 191 to 193
CCOC(=O)c1cc(COC(=O)NCC2(F)CCN(c3ccc4cc(Cl)ccc4n3)CC2)on1 [Compound 56, ethyl 5-[1-(6-chloroquinolin-2-yl)-4-fluoropiperidin-4-ylmethylcarbamoyloxymethyl]isoxazole-3-carboxylate] | – | 132 to 134
CNC(=O)c1cc(COC(=O)NCCC2CCN(c3cccc(-c4ccc(F)cc4)n3)CC2)on1 [Compound 22, 3-methylcarbamoylisoxazol-5-ylmethyl 2-[6′-(4-fluoro-phenyl)-3,4,5,6-tetrahydro-2H-[1,2′]bipyridinyl-4-yl]-ethylcarbamate] | – | 155.5 to 157.5
O=C(NCCC1CCN(c2ccc3cc(Cl)ccc3n2)CC1)OCc1nc(-c2ccc(Cl)cc2)no1 [Compound 4, 3-(4-chlorophenyl)[1,2,4]oxadiazol-5-ylmethyl 2-[1-(6-chloroquinolin-2-yl)piperidin-4-yl]ethylcarbamate] | – | 134 to 136
NC(=O)c1cc(COC(=O)NCCC2CCN(c3ccc4cc(F)ccc4n3)CC2)on1 [Compound 23, 3-carbamoylisoxazol-5-ylmethyl 2-[1-(6-fluoroquinolin-2-yl)piperidin-4-yl]ethylcarbamate] | – | 200 to 202
CNC(=O)c1cc(COC(=O)NC2CCN(c3ccc([N+](=O)[O-])cc3C(F)(F)F)CC2)on1 [Compound 76, 3-methylcarbamoylisoxazol-5-ylmethyl [1-(4-nitro-2-trifluoromethylphenyl)piperidin-4-yl]carbamate] | – | 156 to 158
NC(=O)c1cc(COC(=O)NCCC2CCN(c3cccc(-c4ccc(F)cc4)n3)CC2)on1 [Compound 24, 3-carbamoylisoxazol-5-ylmethyl 2-[6′-(4-fluorophenyl)-3,4,5,6-tetrahydro-2H-[1,2′]bipyridinyl-4-yl]ethylcarbamate] | – | 172 to 174
CNC(=O)c1cc(COC(=O)NCCC2CCN(c3ccc4cc(Cl)ccc4n3)CC2)on1 [Compound 20, 3-methylcarbamoylisoxazol-5-ylmethyl 2-[1-(6-chloroquinolin-2-yl)piperidin-4-yl]ethylcarbamate] | – | 200 to 202

Next, values leading:

IC50 [1] [nM] | melting point [°C] | SMILES
0.6 | – | NC(=O)c1cc(COC(=O)NCCC2CCN(c3ccc(-c4ccc(F)cc4)nn3)CC2)on1 [Compound 41]
2 | – | NC(=O)c1cc(COC(=O)NCCC2CCN(c3nccc(C(F)(F)F)n3)CC2)on1 [Compound 38]
– | 154 to 156 | Cn1ccc(COC(=O)NCCC2CCN(c3ccc(-c4ccc(F)cc4)cn3)CC2)n1 [Compound 8, 1-methyl-1H-pyrazol-3-ylmethyl 2-[5′-(4-fluorophenyl)-3,4,5,6-tetrahydro-2H-[1,2′]bipyridinyl-4-yl]ethylcarbamate]
– | 163 to 165 | NC(=O)c1cc(COC(=O)NCCC2CN(c3nccc(C(F)(F)F)n3)C2)on1 [Compound 82, 3-carbamoylisoxazol-5-ylmethyl {2-[1-(4-trifluoromethylpyrimidin-2-yl)azetidin-3-yl]ethyl}carbamate]
– | 159 to 161 | CNC(=O)c1cc(COC(=O)NCC2CCN(c3nnc(Cl)c4ccccc34)C2)on1 (racemic) [Compound 79, 3-methylcarbamoylisoxazol-5-ylmethyl (±)[1-(4-chlorophthalazin-1-yl)pyrrolidin-3-ylmethyl]carbamate]
– | 168 to 170 | CN(C)C1(CCNC(=O)OC(c2nccn2C)C(F)(F)F)CN(c2nnc(Cl)c3ccccc23)C1 (racemic) [Compound 63, 2,2,2-trifluoro-1-(1-methyl-1H-imidazol-2-yl)ethyl {2-[1-(4-chlorophthalazin-1-yl)-3-dimethylaminoazetidin-3-yl]ethyl}-carbamate]
– | 146 to 148 | O=C(NCCC1CCN(c2ccc3cc(Cl)ccc3n2)CC1)OCc1csnn1 [Compound 18, [1,2,3]thiadiazol-4-ylmethyl 2-[1-(6-chloroquinolin-2-yl)piperidin-4-yl]ethylcarbamate]
– | 187 to 189 | CNC(=O)c1cc(COC(=O)NCC2(F)CCN(c3nccc(C(F)(F)F)n3)CC2)on1 [Compound 57, 3-methylcarbamoylisoxazol-5-ylmethyl [4-fluoro-1-(4-trifluoromethylpyrimidin-2-yl)piperidin-4-yl]methylcarbamate]
– | 112 to 113 | CC(C)c1nc(COC(=O)NCCC2CCN(c3ccc(-c4ccc(F)cc4)cn3)CC2)no1 [Compound 11, 5-isopropyl[1,2,4]oxadiazol-3-ylmethyl 2-[5′-(4-fluorophenyl)-3,4,5,6-tetrahydro-2H-[1,2′]bipyridinyl-4-yl]-ethylcarbamate]
– | 97 to 99 | CC(C)CC(OC(=O)NCCC1CCN(c2ccc3cc(Cl)ccc3n2)CC1)c1ccoc1 (racemic)
– | 171 to 173 | NC(=O)c1cc(COC(=O)NC2CCCN(c3nccc(C(F)(F)F)n3)CC2)on1 (racemic) [Compound 74, 3-carbamoylisoxazol-5-ylmethyl (±)[1-(4-trifluoromethylpyrimidin-2-yl)azepan-4-yl]carbamate]
– | 160 to 162 | O=C(NCCC1CCN(c2ccc3cc(Cl)ccc3n2)CC1)OCc1nc(-c2ccc(F)cc2)no1 [Compound 15, 3-(4-fluorophenyl)[1,2,4]oxadiazol-5-ylmethyl 2-[1-(6-chloroquinolin-2-yl)piperidin-4-yl]ethylcarbamate]
– | 197 to 199 | CNC(=O)c1cc(COC(=O)NC2CCN(c3nccc(C(F)(F)F)n3)CC2)on1 [Compound 70, 3-methylcarbamoylisoxazol-5-ylmethyl [1-(4-trifluoromethylpyrimidin-2-yl)piperidin-4-yl]carbamate]
– | 155 to 157 | CNC(=O)c1cc(COC(=O)NCCC2CN(c3nccc(C(F)(F)F)n3)C2)on1 [Compound 83, 3-methylcarbamoylisoxazol-5-ylmethyl {2-[1-(4-trifluoromethylpyrimidin-2-yl)azetidin-3-yl]ethyl}carbamate]
– | 96 to 98 | CC(C)c1noc(COC(=O)NCCC2CCN(c3ccc(-c4ccc(F)cc4)cn3)CC2)n1 [Compound 7, 3-isopropyl[1,2,4]oxadiazol-5-ylmethyl 2-[5′-(4-fluorophenyl)-3,4,5,6-tetrahydro-2H-[1,2′]bipyridinyl-4-yl]-ethylcarbamate]
– | 110 to 112 | Cc1onc(-c2ccccc2)c1COC(=O)NCCC1CCN(c2ccc3cc(Cl)ccc3n2)CC1 [Compound 6, 5-methyl-3-phenylisoxazol-4-ylmethyl 2-[1-(6-chloroquinolin-2-yl)piperidin-4-yl]ethylcarbamate]
